According to patent publication US7008633B2 (priority 2000, dated 2006):
Counter-ions that a name gives are not always drawn. Numbered stars: 1 amine (or outer) side, 2 acyl side, 3 side chain; on linkers, the order of the positions; unused ones are H or OH. Bridge positions count the residues as written; N and C are the ends. Square brackets hold non-standard residues; d marks the D form. Peptide text beside a SMILES is read from it. I, II: the chains in the order shown. Actinocin(9to1) = Cc1c2oc3c(C)ccc(C(=O)[*:1])c3nc-2c(C(=O)[*:2])c(N)c1=O; NMeV = CN[C@H](C(=O)O)C(C)C; Sar = CNCC(=O)O

Tests used:
[1] = in vivo, cited from earlier work
[2] = Blood chemical assay (BUN, serum creatinine) to detect renal toxicity; assay type: in vivo, rat; conditions: for BUN / SERUM CREATININE: intratumoral 3 MG/KD, breast tumor-bearing rats
Experimental: The SA-CDDP (0.1 ml; cisplatin dose was 3 mg/kg body weight) was injected directly into the tumors through 27 G needles. In a preferred embodiment, about […] SA is used per injection. Calcium chloride (8% in water) was then injected into the same place to form cisplatin-loaded alginate beads in the tumors. The tumor size was measured to determine the anticancer effect, and the blood chemical assay (blood urea nitrogen [BUN] and serum creatinine) were performed to detect renal toxicity.
On day 40, BUN in five experimental rats and five healthy rats (control) were 18.30±1.51 mg/dl and 17.88±2.24 mg/dl, respectively. There was no statistical significance (p>0.05) between the two. Serum creatinine levels were the same as in both experimental and control rats (0.6 mg/dl).

[3] = In vitro slow release of cisplatin from alginate beads; assay type: physicochemical; conditions: incubated in PBS at 37° C.
Experimental: To study in vitro slow release of an anticancer drug from a polymer, the anticancer drug cisplatin and the polymer sodium alginate were tested for slow release of the drug. Cisplatin-loaded alginate beads (SA-CDDP) were formed instantly and then incubated in phosphate-buffered saline (PBS) in tubes at 37° C. Cisplatin was completely released from the alginate beads in 15 hours, which is considerably slower than the release time (within 2.5 hours) of cisplatin powder only (control) (FIG. 1).

multiple myeloma = conditions: oral administration; cited from earlier work
[4] = in vivo; cited from earlier work

Structure (SMILES): Cc1c2oc3c(C)ccc(C(=O)N[C@@H]4C(=O)N[C@H](C(C)C)C(=O)N5CCC[C@H]5C(=O)N(C)CC(=O)N(C)[C@@H](C(C)C)C(=O)O[C@@H]4C)c3nc-2c(C(=O)N[C@@H]2C(=O)N[C@H](C(C)C)C(=O)N3CCC[C@H]3C(=O)N(C)CC(=O)N(C)[C@@H](C(C)C)C(=O)O[C@@H]2C)c(N)c1=O [Actinomycin D] (I: T[dV]P[Sar][NMeV] / II: T[dV]P[Sar][NMeV]; ester I:1-I:C, II:1-II:C; linker I:N-II:N via Actinocin(9to1))
- share of the dose excreted intact into the bile [1]: Half of the dose
- share of the dose excreted or detected intact in the urine [1]: 10%

Structure (SMILES): [NH2][Pt]([NH2])([Cl])[Cl] [CDDP, cisplatin]
- oral absorption ([1]; po): not absorbed orally
- nephrotoxicity ([2]; CDDP intratumorally): a clear nephrotoxicity was observed
- BUN ([2]; day 2): 56.21 mg/dL
- SERUM CREATININE ([2]; day 2): 1.5 mg/dL
- BUN ([2]; day 5): 246.42 mg/dL
- SERUM CREATININE ([2]; day 5): 7.03 mg/dL
- BUN ([2]; day 7): 152.35 mg/dL
- SERUM CREATININE ([2]; day 7): 2.4 mg/dL
- BUN ([2]; day 16): 41.75 mg/dL
- SERUM CREATININE ([2]; day 16): 0.7 mg/dL
- time to complete release of cisplatin [3]: ≤ 2.5 h

Structure (SMILES): COc1cccc2c1C(=O)c1c(O)c3c(c(O)c1C2=O)C[C@@](O)(C(C)=O)C[C@@H]3O[C@H]1C[C@H](N)[C@H](O)[C@H](C)O1 [Daunorubicin, 5,12-Naphthacenedione, (8S-cis)-8-acetyl-10-[(3-amino-2,3,6-trideoxy-a-L-lyxo-hexanopyranosyl)oxy]-7,8,9,10-tetrahydro-6,8,11-trihydroxy-10-methoxy-, hydrochloride]
- oral absorption ([1]; po): Oral absorption is poor

Structure (SMILES): O=NN(CCCl)C(=O)NC1CCCCC1 [Lomustine, 1-(2-chloro-ethyl)-3-cyclohexyl-1 nitrosourea]
- radioactivity excreted in the form of degradation products ([1]; po): about half

Structure (SMILES): N[C@@H](Cc1ccc(N(CCCl)CCCl)cc1)C(=O)O [Melphalan, 4-[bis(2-chloroethyl)amino]-L-phenylalanine]
- share of patients with a favorable response (multiple myeloma): about one third to one half

Structure (SMILES): CO[C@@]12[C@H](COC(N)=O)C3=C(C(=O)C(C)=C(N)C3=O)N1C[C@@H]1N[C@@H]12 [Mitomycin]
- share of a dose excreted unchanged in the urine [4]: Approximately 10%

Structure (SMILES): CC[C@]1(O)C[C@@H]2CN(CCc3c([nH]c4ccccc34)[C@@](C(=O)OC)(c3cc4c(cc3OC)N(C)[C@H]3[C@@](O)(C(=O)OC)[C@H](OC(C)=O)[C@]5(CC)C=CCN6CC[C@]43[C@@H]65)C2)C1 [Vinblastine]
- share of the dose excreted or detected intact in the urine [1]: Approximately 15%
